Results taken from patent US20120083522A1, “MODULATION OF INFLAMMATORY RESPONSES BY FACTOR XI” (Isis Pharmaceuitcals, inc., priority 2009, published 2012).
In the oligonucleotide strings, read from the 5' end, every base follows the letter of its sugar. An asterisk marks phosphorothioate; unmarked linkages are phosphodiester. Other units and linkages are bracketed, terminal groups are in braces. A string of capitals states the bases alone. e = 2'-O-(2-methoxyethyl) (MOE); [5mC] = 5-methylcytosine; d = 2'-deoxy (DNA)

Key:
Assay type in all cases: cell-based
human Factor XI mRNA [1] = assay: Antisense inhibition in HepG2 cells by microwalk gapmers, 75 nM, lipofectin (Example 3); details: HepG2 cells, 75 nM
Method in brief: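 HepG2 cells (10,000 per well) were transfected with 75 nM gapmer using lipofectin and treated for about 24 h. Factor XI mRNA was quantified by real-time PCR, normalized to RiboGreen total RNA and expressed as percent inhibition versus untreated controls.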

human Factor XI mRNA [2] = assay: Dose-dependent inhibition in HepG2 cells, electroporation (Example 4); details: 16 hours
Description: (§1) The gapmers were also transfected via electroporation and their dose dependent inhibition of human Factor XI mRNA was measured. Cells were plated at a density of 20,000 cells per well and transfected via electroporation with 0.7 μM, 2.2 μM, 6.7 μM, and 20 μM concentrations of antisense oligonucleotide, as specified in Table 10. After a treatment period of approximately 16 hours, RNA was isolated from the cells and Factor XI mRNA levels were measured by quantitative real-time PCR. Human Factor XI primer probe set RTS 2966 was used to measure mRNA levels. Factor XI mRNA levels were adjusted according to total RNA content, as measured by RIBOGREEN®. Results are presented as percent inhibition of Factor XI, relative to untreated control cells.

human Factor XI mRNA [3] = assay: Dose-dependent inhibition in HepG2 cells, lipofectin (Example 4); details: 16 hours
Description: as §1, with “Cells” for “The gapmers were also transfected via electroporation and their dose dependent inhibition of human Factor XI mRNA was measured. Cells”, “10,000” for “20,000”, “using lipofectin reagent” for “via electroporation”, “9.375 nM, 18.75 nM, 37.5 nM” for “0.7 μM, 2.2 μM, 6.7 μM,”, “75 nM” for “20 μM”, “9.” for “10.”

[4] = oligonucleotides targeted to nucleobases 1018 to 1042 of SEQ ID NO: 1
[5] = oligonucleotides targeted to nucleobases 1275 to 1318 of SEQ ID NO: 1

| Substance | % inhibition of human Factor XI mRNA levels (human Factor XI mRNA [1]; [4]) | percent inhibition of Factor XI mRNA, relative to untreated control cells (human Factor XI mRNA [2]; 0.7 μM) | percent inhibition of Factor XI mRNA, relative to untreated control cells (human Factor XI mRNA [2]; 2.2 μM) | percent inhibition of Factor XI mRNA, relative to untreated control cells (human Factor XI mRNA [2]; 6.7 μM) | percent inhibition of Factor XI mRNA, relative to untreated control cells (human Factor XI mRNA [2]; 20 μM) | percent inhibition of Factor XI mRNA, relative to untreated control cells (human Factor XI mRNA [3]; 9.375 nM) | percent inhibition of Factor XI mRNA, relative to untreated control cells (human Factor XI mRNA [3]; 18.75 nM) | percent inhibition of Factor XI mRNA, relative to untreated control cells (human Factor XI mRNA [3]; 37.5 nM) | percent inhibition of Factor XI mRNA, relative to untreated control cells (human Factor XI mRNA [3]; 75 nM) | % inhibition of human Factor XI mRNA levels (human Factor XI mRNA [1]; oligonucleotides targeted to nucleobases 1062 to 1091 of SEQ ID NO: 1) | % inhibition of human Factor XI mRNA levels (human Factor XI mRNA [1]; [5]) |
| --- | --- | --- | --- | --- | --- | --- | --- | --- | --- | --- | --- |
| 413474 (antisense eA*eG*e[5mC]*eA*eA*d[5mC]*d[5mC]*dG*dG*dG*dA*dT*dG*dA*dT*eG*eA*eG*eT*eG) [compound 413474] | 93% | 0% | 5% | 52% | 81% | 29% | 44% | 57% | 67% | – | – |
| 416842 (antisense eT*eG*eA*eG*eA*dT*dT*d[5mC]*dT*dT*dT*dG*dG*dG*d[5mC]*e[5mC]*eA*eT*eT*e[5mC]) [compound 416842] | – | 0% | 10% | 66% | 92% | 18% | 33% | 62% | 71% | 94% | – |
| 416908 (antisense eG*e[5mC]*eA*dA*d[5mC]*d[5mC]*dG*dG*dG*dA*dT*dG*dA*dT*dG*dA*dG*eT*eG*e[5mC]) [compound 416908] | 98% | 7% | 58% | 74% | 89% | 36% | 57% | 67% | 76% | – | – |
| 416922 (antisense eG*e[5mC]*eA*d[5mC]*dA*dG*dT*dT*dT*d[5mC]*dT*dG*dG*d[5mC]*dA*dG*dG*e[5mC]*e[5mC]*eT) [compound 416922] | – | 35% | 51% | 77% | 91% | 14% | 25% | 49% | 75% | – | 94% |
| 416923 (antisense eT*eG*e[5mC]*dA*d[5mC]*dA*dG*dT*dT*dT*d[5mC]*dT*dG*dG*d[5mC]*dA*dG*eG*e[5mC]*e[5mC]) [compound 416923] | – | 15% | 30% | 60% | 90% | 36% | 47% | 60% | 67% | – | 96% |
| 416924 (antisense eG*eT*eG*d[5mC]*dA*d[5mC]*dA*dG*dT*dT*dT*d[5mC]*dT*dG*dG*d[5mC]*dA*eG*eG*e[5mC]) [compound 416924] | – | 22% | 40% | 63% | 70% | 25% | 38% | 56% | 59% | – | 97% |
| 416926 (antisense eT*eG*eG*dT*dG*d[5mC]*dA*d[5mC]*dA*dG*dT*dT*dT*d[5mC]*dT*dG*dG*e[5mC]*eA*eG) [compound 416926] | – | 47% | 71% | 91% | 94% | 31% | 43% | 63% | 82% | – | 93% |
| 416931 (antisense eG*eG*e[5mC]*dA*dT*dT*dG*dG*dT*dG*d[5mC]*dA*d[5mC]*dA*dG*dT*dT*eT*e[5mC]*eT) [compound 416931] | – | 7% | 24% | 60% | 82% | 44% | 39% | 57% | 71% | – | 96% |
